pIC50: −log10 of the molar value. “Also recorded” adds a separate entry of the source.
Experiments:
[1] = test system: downstream surrogates of KRAS signaling (e.g. pMEK and pAKT); assay: Immunoblot of NIH3T3 cells expressing FKBP*-KRASG12V: downstream KRAS signaling; type: cell-based
Method: (§1) FIG. 19 is an immunoblot of NIH3T3 cells expressing KRASG12V allele fused to FKBP* in the N-terminus or C-terminus. Cells were treated with 500 nM dFKBP7 for the indicated time. Cells were harvested and immunoblotted to measure degradation of FKBP*-KRASG12V and downstream surrogates of KRAS signaling (e.g. pMEK and pAKT).
(§2) FIG. 20 is an immunoblot of NIH3T3 cells expressing FKBP* fused to the N-terminus of KRASG12V treated with luM of the indicated dFKBP heterobifunctional compounds for 24 hours. Cells were harvested and immunoblotted to measure degradation of FKBP*-KRASG12V and downstream surrogates of KRAS signaling (e.g. pMEK and pAKT).
(§3) FIG. 21 is an immunoblot of NIH3T3 cells expressing FKBP* fused to the N-terminus of KRASG12V treated with the indicated concentrations of dFKBP13 for 24 hours. Cells were harvested and immunoblotted to measure degradation of FKBP*-KRASG12V and downstream surrogates of KRAS signaling (e.g. pMEK and pAKT).
(§4) FIG. 22 is an immunoblot of NIH3T3 cells expressing FKBP* fused to the N-terminus of KRASG12V treated with luM dFKBP13 for the indicated time. Cells were harvested and immunoblotted to measure degradation of FKBP*-KRASG12V and downstream surrogates of KRAS signaling (e.g. pMEK and pAKT).
(§5) Cells were treated with 500 nM dFKBP7 for the indicated time. Cells were harvested and immunoblotted to measure degradation of FKBP*-KRAS and downstream surrogates of KRAS signaling (e.g. pMEK and pAKT).
(§6) Western blotting of NIH3T3 cells expressing dTAG-KRASG12V were treated with 1 μM of the indicated dFKBP heterobifunctional compounds for 24 hours. Cells were harvested and immunoblotted to measure degradation of FKBP*-KRAS and downstream surrogates of KRAS signaling (e.g. pMEK and pAKT).
(§7) Western blotting of NIH3T3 cells expressing FKBP* fused to the N-terminus of KRAS treated with the indicated concentrations of dFKBP13 for 24 hours. Cells were harvested and immunoblotted to measure degradation of FKBP*-KRAS and downstream surrogates of KRAS signaling (e.g. pMEK and pAKT).
(§8) To evaluate the kinetic control of targeted degradation of dTAG-KRAS, dFKBP13 was administered by increased duration. Western blotting of NIH3T3 cells expressing FKBP* fused to the N-terminus of KRAS treated with 1 μM dFKBP13 for the indicated time. Cells were harvested and immunoblotted to measure degradation of FKBP*-KRAS and downstream surrogates of KRAS signaling (e.g. pMEK and pAKT).

[2] = test system: indicated proteins fused to mutant FKBP*; assay: Immunoblot of MV4;11 leukemia cells expressing proteins fused to mutant FKBP* with an HA tag; details: 16 hours, indicated concentrations
Excerpt: Immunoblots of MV4; 11 leukemia cells expressing indicated proteins fused to mutant FKBP* with an HA tag.
To test the general utility of the dTAG technology across several protein types, the indicated proteins fused to the dTAG in MV4; 11 leukemia cells were expressed.

[3] = molecular target: T1, FKBP12WT (Homo sapiens, UniProt P62942); assay: Immunoblot of 293FT cells (CRBN-WT or CRBN−/−) expressing FKBP12WT; type: cell-based; details: for degradation of FKBP12WT or endogenous FKBP12: isogenic 293FT CRBN-WT or CRBN−/−, 100 nM, 4 hours
T1 construct: HA; expressed in transfected cells; host or cells: 293FT cells (CRBN-WT or CRBN-/-)
Method: FIG. 6 is an immunoblot of cells treated with bi-functional molecules described in the present invention. 293FT cells (CRBN-WT or CRBN−/−) expressing either HA-tagged FKBP12WT or FKBP* (also referred to as dFKBP12* herein) were treated with indicated concentrations of dFKBP7 for 4 hours.
Isogenic 293FT cells (CRBN-WT or CRBN−/−) expressing either FKBP12WT or FKBP* were treated with 100 nM of either dFKBP7 or dFKBP13 for 4 hours.
The dTAG is predicated on the selectivity of FKBP* specific ligands over endogenous, wild type FKBP. […] An immunoblot of cells treated with bi-functional molecules described in the present invention was performed. 293FT cells (CRBN-WT or CRBN−/−) expressing either HA-tagged FKBP12WT or FKBP* were treated with indicated concentrations of dFKBP7 for 4 hours.
Isogenic 293FT cells (CRBN-WT or CRBN−/−) were engineered to express either FKBP12WT or FKBP*. Cells were treated with 100 nM of either dFKBP7 or dFKBP13 for 4 hours before lysates were prepared for western immunoblot analysis.

[4] = test system: FKBP*-KRASG12V; assay: Immunoblot of NIH3T3 cells expressing FKBP* fused to KRASG12V: degradation; type: cell-based
Method: as §1, §2, §3, §4, §5, §6, §7, §8

[5] = molecular target: T2, FKBP* (Homo sapiens, UniProt P62942, F37V); assay: Immunoblot of 293FT cells (CRBN-WT) expressing FKBP*, pretreated with Carfilzomib, MLN4924 or Lenalidomide before dFKBP13; type: cell-based
T2 construct: HA; expressed in transfected cells; host or cells: 293FT cells (CRBN-WT or CRBN-/-)
Method: 293FT cells (CRBN-WT) expressing FKBP* were pretreated with luM Carfilzomib (proteasome inhibitor), 0.5 uM MLN4924 (neddylation inhibitor), and 10 uM Lenalidomide (CRBN binding ligand) for two hours prior to a 4 hour treatment with dFKBP13.
293FT cells (CRBN-WT) were engineered to express FKBP*. Cells were pretreated with luM Carfilzomib (proteasome inhibitor), 0.5 uM MLN4924 (neddylation inhibitor), and 10 uM Lenalidomide (CRBN binding ligand) for two hours prior to a 4 hour treatment with dFKBP13. Lysates were prepared and western immunoblot analysis performed.

[6] = test system: NIH3T3 expressing FKBP* fused to the N-terminus of KRASG12V; assay: Phase contrast imaging of NIH3T3 cells expressing FKBP*-KRASG12V; type: cell-based; details: NIH3T3 expressing dTAG-KRAS; dFKBP13, 24 hours; vs DMSO
Method: FIG. 23A, FIG. 23B, FIG. 23C, and FIG. 23D are panels of phase contrast images of control NIH3T3 cells or NIH3T3 expressing FKBP* fused to the N-terminus of KRASG12V treated with DMSO or dFKBP13 for 24 hours.

T2 sequence (P62942 whole entry F37V): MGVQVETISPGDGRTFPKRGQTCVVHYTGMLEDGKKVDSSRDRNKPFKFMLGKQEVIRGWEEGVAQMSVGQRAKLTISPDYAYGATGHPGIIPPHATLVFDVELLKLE
T1 sequence (P62942 whole entry): as the sequence (P62942 whole entry F37V) above, with V37F counted along it

Row | SMILES | downstream p-AKT signal ([1]; NIH3T3 N-terminal dTAG-KRAS, 500 nM dFKBP7, indicated time) | degradation of proteins fused to dTAG (FKBP*) [2] | degradation of HA-tagged FKBP12WT ([3]; 293FT CRBN-WT or CRBN−/−, indicated concentrations of dFKBP7, 4 hours) | degradation of FKBP12WT or endogenous FKBP12 [3] | degradation of FKBP*-KRASG12V ([4]; 500 nM dFKBP7, indicated time, N-terminal fusion) | inhibition of downstream signaling (pMEK, pAKT) ([1]; NIH3T3 FKBP*-KRASG12V, 1 μM, 24 hours) | pIC50 ([1]; NIH3T3 FKBP*-KRASG12V, indicated concentrations of dFKBP13, 24 hours, read-out: IC50, inhibits downstream signaling) | degradation of HA-tagged FKBP* by dFKBP13 after MLN4924 pretreatment ([5]; 0.5 uM MLN4924 (neddylation inhibitor) two hours prior to 4 hour dFKBP13) | degradation of HA-tagged FKBP* by dFKBP13 after Carfilzomib pretreatment ([5]; 1 uM Carfilzomib (proteasome inhibitor) two hours prior to 4 hour dFKBP13) | degradation of FKBP* by dFKBP13 after Lenalidomide pretreatment ([5]; 10 uM Lenalidomide (CRBN binding ligand) two hours prior to 4 hour dFKBP13) | morphological change of cells [6] | time at which degradation of FKBP*-KRASG12V and inhibition of downstream signaling are seen ([4]; 1 μM dFKBP13, indicated time) [h] | degradation of FKBP*-KRASG12V ([4]; 1 μM, 24 hours) | degradation of FKBP*-KRASG12V ([4]; indicated concentrations of dFKBP13, 24 hours)
1 | CC[C@H](C(=O)N1CCCC[C@H]1C(=O)O[C@H](CCc1ccc(OC)c(OC)c1)c1cccc(OCC(=O)NCCCOCCOCCOCCCNC(=O)COc2cccc3c2C(=O)N(C2CCC(=O)NC2=O)C3=O)c1)c1cc(OC)c(OC)c(OC)c1 (stereo partly shown) [dFKBP7] | downstream decrease in p-AKT signal | degradation was observed with nanomolar concentrations | not FKBPWT | not FKBP12WT or endogenous FKBP12 | potent degradation; also recorded: N-terminal FKBP* fusions are active and degraded |  |  |  |  |  |  |  |  | 
2 | CC[C@H](C(=O)N1CCCC[C@H]1C(=O)O[C@H](CCc1ccc(OC)c(OC)c1)c1cccc(OCC(=O)NCCCCCCOc2cccc3c2C(=O)N(C2CCC(=O)NC2=O)C3=O)c1)c1cc(OC)c(OC)c(OC)c1 (stereo partly shown) [dFKBP13] |  | degradation was observed with nanomolar concentrations |  | not FKBP12WT or endogenous FKBP12 |  | inhibition of downstream signaling | < 7.00 | rescued HA-tagged FKBP* | rescued by the proteasome inhibitor Carfilzomib | abolished dFKBP13-dependent FKBP* degradation | cells morphologically revert back to the wild type (DMSO control) state; also recorded: morphological change induced | ≤ 1 | potent degradation | potently degrades dTAG-KRAS at nanomolar concentrations; also recorded: potent degradation

Source: patent publication US11046954B2, “Targeted protein degradation to attenuate adoptive T-cell therapy associated adverse inflammatory responses” (Dana-Farber Cancer Institute, Inc., priority 2015, dated 2021)
